Test system: rodent model of stroke recovery (MCAO)
Assay: Stroke recovery in vivo after middle cerebral artery occlusion (MCAO): limb placing and body swing tests
Settings: rat MCAO; 10 mg/kg i.v. on Day 1, 2 and 3 after MCAO; vs vehicle, p<0.001; up to Day 21
Experimental: Compound 2 (2-(1-benzhydrylpiperidin-4-yl)-N,N-diethyl-1,2,3,4-tetrahydroisoquinolin-6-amine) was tested for its effectiveness in a rodent model of stroke recovery. Twenty male Sprague Dawley Rats (Charles River Laboratories) each weighing 300-400 g were used in this experiment. First, anesthesia was induced in an induction chamber with 2-3% isoflurane in N2O:O2 (2:1) and maintained with 1-1.5% isoflurane via face mask. Adequate depth of anesthesia was assessed by lack of withdrawal to hindlimb pinch and loss of eyeblink reflex. Once anesthetized, animals received cefazolin sodium (40 mg/kg, i.p.) and buprenorphine SR (0.9-1 mg/kg, s.c.). Cefazolin was used as a prophylactic antibiotic. A veterinary ophthalmic ointment (Sodium Chloride hypertonicity ophthalmic ointment (Muro 128 Sterile Ophthalmic 5% Ointment)) was applied to the eyes. […]
Behavioral evaluations of sensorimotor function were done by investigators blinded to treatment assignment. […] For the forelimb-placing test, the examiner held the rat close to a tabletop and scored the rat's ability to place the forelimb on the tabletop in response to whisker, visual, tactile, or proprioceptive stimulation. Similarly, for the hindlimb placing test, the examiner assessed the rat's ability to place the hindlimb on the tabletop in response to tactile and proprioceptive stimulation. […]

CCN(CC)c1ccc2c(c1)CCN(C1CCN(C(c3ccccc3)c3ccccc3)CC1)C2 [Compound 2, 2-(1-benzhydrylpiperidin-4-yl)-N,N-diethyl-1,2,3,4-tetrahydroisoquinolin-6-amine]
sensorimotor recovery (forelimb placing, hindlimb placing and body swing tests): clear and significant augmentation of sensorimotor recovery

— patent US20240174631A1, “COMPOUNDS, COMPOSITIONS, AND METHODS FOR MODULATING FGF ACTIVITY” (Recovery Therapeutics, Inc., priority 2021, published 2024)
